Earlier results in patent US20210072238A1, “IMMOBILIZATION OF PROTEINS WITH CONTROLLED ORIENTATION AND LOAD” (Oregon State University, priority 2019, published 2021).

Details: ncAA incorporated in protein

SMILES: Cc1nnc(-c2ccc(C[C@H](N)C(=O)O)cc2)nn1 [Tet2.0, (S)-2-amino-3-(4-(6-methyl-1,2,4,5-tetrazin-3-yl)phenyl) propanoic acid]
- second-order in proteo reaction rate with sTCO: ~72,000 M^−1 s^−1
